The target in one test is T1, rat TRPV1 (Rattus norvegicus, UniProt O35433).
T1 construct: expressed in transfected cells; host or cells: HEK293 (rTRPV1/HEK293), geneticin selection
Description: Functional assay: block of capsaicin-induced Ca2+ influx, rat assay (rTRPV1/HEK293, FLIPR). Type of test: cell-based. The following applies: rTRPV1/HEK293 cells, capsaicin challenge, Fluo-3 fluorescence; mean; > value = solubility limit in assay medium. The essentials: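 HEK293 cells expressing rat TRPV1, loaded with fluo3 and preincubated 30 min with compound in 20 μM Ca2+ buffer before capsaicin challenge. Block read as fluo3 fluorescence change over 100 s after agonist, 3-fold series from 10 μM in duplicate. IC50 by non-linear regression, mean values.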

For the next test, the target named is T2, human TRPV1 (Homo sapiens, UniProt Q8NER1).
T2 construct: expressed in transfected cells; host or cells: HEK293 (hTRPV1/HEK293), zeocin selection
As to the kind of experiment: Functional assay: block of capsaicin-induced Ca2+ influx, human assay (hTRPV1/HEK293, FLIPR). Type of test: cell-based. The following applies: hTRPV1/HEK293 cells, 150 nM capsaicin challenge, Fluo-3 fluorescence; mean; > value = solubility limit in assay medium. The method in brief: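 HEK293 cells stably expressing human TRPV1, fluo3-loaded, preincubated 30 min with compound (serial 3-fold dilutions from 10 μM, duplicate) in 20 μM Ca2+ buffer. Capsaicin response taken as fluo3 fluorescence change before vs 100 s after agonist; IC50 by non-linear regression, mean values; free base or TFA salt.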

The values below come from patent publication US20080004253A1, “Thiazolopyrimidine modulators of TRPV1” (priority 2006, published 2008).

T2 sequence (Q8NER1 whole entry): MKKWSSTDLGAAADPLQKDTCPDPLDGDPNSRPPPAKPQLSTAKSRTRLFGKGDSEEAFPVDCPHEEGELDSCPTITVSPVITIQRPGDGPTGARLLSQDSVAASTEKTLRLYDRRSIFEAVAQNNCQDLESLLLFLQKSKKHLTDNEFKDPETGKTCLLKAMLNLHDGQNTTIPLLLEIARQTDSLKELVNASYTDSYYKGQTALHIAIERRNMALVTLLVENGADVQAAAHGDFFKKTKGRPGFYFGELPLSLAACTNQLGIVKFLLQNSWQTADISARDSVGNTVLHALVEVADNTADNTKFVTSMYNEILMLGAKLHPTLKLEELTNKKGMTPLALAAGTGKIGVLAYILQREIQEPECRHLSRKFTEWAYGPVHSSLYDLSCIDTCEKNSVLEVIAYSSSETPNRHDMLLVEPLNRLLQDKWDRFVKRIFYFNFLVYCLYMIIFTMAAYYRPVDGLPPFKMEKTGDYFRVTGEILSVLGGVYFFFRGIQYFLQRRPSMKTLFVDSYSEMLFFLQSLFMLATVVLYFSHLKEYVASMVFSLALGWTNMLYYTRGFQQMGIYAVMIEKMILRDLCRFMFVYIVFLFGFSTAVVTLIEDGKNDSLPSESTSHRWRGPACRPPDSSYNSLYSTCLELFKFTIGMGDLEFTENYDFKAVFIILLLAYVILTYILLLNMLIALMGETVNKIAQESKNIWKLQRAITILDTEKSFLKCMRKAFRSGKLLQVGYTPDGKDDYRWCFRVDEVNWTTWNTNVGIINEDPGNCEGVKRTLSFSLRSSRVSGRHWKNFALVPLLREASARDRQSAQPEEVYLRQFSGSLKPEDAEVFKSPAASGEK
T1 sequence (O35433 whole entry): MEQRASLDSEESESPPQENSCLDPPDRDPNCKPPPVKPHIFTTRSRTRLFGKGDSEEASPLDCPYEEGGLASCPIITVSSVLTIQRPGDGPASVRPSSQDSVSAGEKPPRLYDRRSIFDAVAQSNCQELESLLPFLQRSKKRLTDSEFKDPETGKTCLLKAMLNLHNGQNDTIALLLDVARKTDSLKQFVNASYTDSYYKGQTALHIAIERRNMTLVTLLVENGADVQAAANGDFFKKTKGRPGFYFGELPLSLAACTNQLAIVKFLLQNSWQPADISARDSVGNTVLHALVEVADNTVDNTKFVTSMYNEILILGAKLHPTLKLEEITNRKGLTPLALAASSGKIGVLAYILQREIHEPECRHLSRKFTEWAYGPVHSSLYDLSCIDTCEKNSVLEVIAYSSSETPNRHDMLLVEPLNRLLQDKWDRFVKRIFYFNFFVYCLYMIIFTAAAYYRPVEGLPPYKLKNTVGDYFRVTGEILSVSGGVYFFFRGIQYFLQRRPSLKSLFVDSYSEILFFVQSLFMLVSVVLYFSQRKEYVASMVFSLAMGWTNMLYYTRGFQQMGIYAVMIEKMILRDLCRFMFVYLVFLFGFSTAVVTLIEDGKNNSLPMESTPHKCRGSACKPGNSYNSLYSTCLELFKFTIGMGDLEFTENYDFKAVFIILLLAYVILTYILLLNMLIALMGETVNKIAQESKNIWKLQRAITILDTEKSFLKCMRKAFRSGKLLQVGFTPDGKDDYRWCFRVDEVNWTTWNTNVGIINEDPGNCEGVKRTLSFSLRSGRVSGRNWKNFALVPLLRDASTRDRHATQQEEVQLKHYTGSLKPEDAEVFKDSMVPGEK

Turning to `Cc1cccc(C)c1Nc1nc2c(Nc3ccc(C(F)(F)F)c(F)c3)ncnc2s1` [Example 108, N^2-(2,6-Dimethyl-phenyl)-N^7-(3-fluoro-4-trifluoromethyl-phenyl)-thiazolo[5,4-d]pyrimidine-2,7-diamine], the IC50 at rat TRPV1 was determined as 14 nM; against human TRPV1, 26 nM.

Regarding `O=S(=O)(c1ccc(Nc2ncnc3sc(Nc4ccccc4Cl)nc23)cc1)N1CCCC1` [Example 109, N^2-(2-Chloro-phenyl)-N^7-[4-(pyrrolidine-1-sulfonyl)-phenyl]-thiazolo[5,4-d]pyrimidine-2,7-diamine], the IC50 on rat TRPV1 turned out to be 18 nM; on human TRPV1, 28 nM.

For the molecule `Cc1cccc(C)c1Nc1nc2c(Nc3ccc(S(=O)(=O)N4CCN(C)CC4)cc3)ncnc2s1` [Example 110, N^2-(2,6-Dimethyl-phenyl)-N^7-[4-(4-methyl-piperazine-1-sulfonyl)-phenyl]-thiazolo[5,4-d]pyrimidine-2,7-diamine], the IC50 at rat TRPV1 was 20 nM; on human TRPV1, 26 nM.

For the molecule `Cc1nc(Nc2ccc(OC(F)(F)F)cc2)c2nc(Nc3c(Cl)cccc3Cl)sc2n1` [Example 111, N^2-(2,6-Dichloro-phenyl)-5-methyl-N^7-(4-trifluoromethoxy-phenyl)-thiazolo[5,4-d]pyrimidine-2,7-diamine], the figures for the 50% inhibitory concentration (IC50) against rat TRPV1 and against human TRPV1 were 16 nM and 36 nM, respectively.

As for `Cc1cccc(C)c1Nc1nc2c(Nc3ccc(SC(C)C)cc3)ncnc2s1` [Example 112, N^2-(2,6-Dimethyl-phenyl)-NT-(4-isopropylsulfanyl-phenyl)-thiazolo[5,4-d]pyrimidine-2,7-diamine], the results for the IC50 against rat TRPV1 and against human TRPV1 were 56 nM and 36 nM, respectively.

`CN(C)S(=O)(=O)c1ccc(Nc2ncnc3sc(Nc4ccccc4Cl)nc23)cc1` [Example 113, 4-[2-(2-Chloro-phenylamino)-thiazolo[5,4-d]pyrimidin-7-ylamino]-N,N-dimethyl-benzenesulfonamide]: the IC50 at rat TRPV1 came to 17 nM; at human TRPV1, 38 nM.

In the case of `CSc1ccc(Nc2nc(C)nc3sc(Nc4c(C)cccc4C)nc23)cc1` [Example 114, N^2-(2,6-Dimethyl-phenyl)-5-methyl-N^7-(4-methylsulfanyl-phenyl)-thiazolo[5,4-d]pyrimidine-2,7-diamine], the IC50 against rat TRPV1 was 13 nM; against human TRPV1 it was 39 nM.

Take `Cc1cccc(C)c1Nc1nc2c(Nc3ccc(S(C)(=O)=O)cc3)ncnc2s1` [Example 115, N^2-(2,6-Dimethyl-phenyl)-N^7-(4-methanesulfonyl-phenyl)-thiazolo[5,4-d]pyrimidine-2,7-diamine]: the IC50 is 4 nM at rat TRPV1 and 44 nM on human TRPV1.

Turning to `Cc1ccccc1Nc1nc2c(Nc3ccc(S(C)(=O)=O)cc3)ncnc2s1` [Example 116, N^7-(4-Methanesulfonyl-phenyl)-N^2-o-tolyl-thiazolo[5,4-d]pyrimidine-2,7-diamine], the concentration for half-maximal inhibition (IC50) on rat TRPV1 was found to be 11 nM; against human TRPV1, 45 nM.

For `Cc1cccc(C)c1Nc1nc2c(Nc3ccc(Cl)nc3)ncnc2s1` [Example 119, N^7-(6-Chloro-pyridin-3-yl)-N^2-(2,6-dimethyl-phenyl)-thiazolo[5,4-d]pyrimidine-2,7-diamine], the IC50 came out at 51 nM against rat TRPV1 and 56 nM against human TRPV1.

In the case of `CSc1ccc(Nc2ncnc3sc(Nc4c(C)cccc4C)nc23)cc1` [Example 120, N^2-(2,6-Dimethyl-phenyl)-N^7-(4-methylsulfanyl-phenyl)-thiazolo[5,4-d]pyrimidine-2,7-diamine], the IC50 at rat TRPV1 came to 15 nM; on human TRPV1, 64 nM.

For the molecule `Cc1nc(Nc2ccc(C(F)(F)F)c(F)c2)c2nc(Nc3c(C)cccc3C)sc2n1` [Example 121, N^2-(2,6-Dimethyl-phenyl)-N^7-(3-fluoro-4-trifluoromethyl-phenyl)-5-methyl-thiazolo[5,4-d]pyrimidine-2,7-diamine], the IC50 came out at 25 nM against rat TRPV1 and 82 nM on human TRPV1.

`Cc1cccc(C)c1Nc1nc2c(Nc3ccc(S(=O)(=O)C(C)C)cc3)ncnc2s1` [Example 122, N^2-(2,6-Dimethyl-phenyl)-N^7-[4-(Propane-2-sulfonyl)-phenyl]-thiazolo[5,4-d]pyrimidine-2,7-diamine]: the figures for the IC50 against rat TRPV1 and against human TRPV1 were 129 nM and 87 nM, respectively.

`Cc1cccc(C)c1Nc1nc2c(Nc3ccc(Br)cc3)ncnc2s1` [Example 123, N^7-(4-Bromo-phenyl)-N^2-(2,6-dimethyl-phenyl)-thiazolo[5,4-d]pyrimidine-2,7-diamine]: the IC50 is 59 nM at rat TRPV1 and 97 nM against human TRPV1.

As to `CSc1ccc(Nc2ncnc3sc(Nc4c(Cl)cccc4Cl)nc23)cc1Cl` [Example 124, N^7-(3-Chloro-4-methylsulfanyl-phenyl)-N^2-(2,6-dichloro-phenyl)-thiazolo[5,4-d]pyrimidine-2,7-diamine], the IC50 is 40 nM against rat TRPV1 and 98 nM on human TRPV1.

As for `Cc1nc(Nc2ccc(C(C)C)cc2)c2nc(Nc3c(C)cccc3C)sc2n1` [Example 125, N^2-(2,6-Dimethyl-phenyl)-N^7-(4-isopropyl-phenyl)-5-methyl-thiazolo[5,4-d]pyrimidine-2,7-diamine], the values for the IC50 against rat TRPV1 and against human TRPV1 were 19 nM and 123 nM, respectively.

Turning to `CS(=O)(=O)c1ccc(Nc2ncnc3sc(Nc4ccccc4Cl)nc23)cc1` [Example 126, N^2-(2-Chloro-phenyl)-N^7-(4-methanesulfonyl-phenyl)-thiazolo[5,4-d]pyrimidine-2,7-diamine], the 50% inhibitory concentration (IC50) at rat TRPV1 came to 30 nM; at human TRPV1, 129 nM.

Regarding `CSc1nc(Nc2ccc(S(=O)(=O)N(C)C)cc2)c2nc(Nc3c(Cl)cccc3Cl)sc2n1` [Example 127, 4-[2-(2,6-Dichloro-phenylamino)-5-methylsulfanyl-thiazolo[5,4-d]pyrimidin-7-ylamino]-N,N-dimethyl-benzenesulfonamide], the IC50 was found to be 59 nM on rat TRPV1 and 138 nM against human TRPV1.

Consider `CC(=O)c1ccc(Nc2ncnc3sc(Nc4c(C)cccc4C)nc23)cc1` [Example 128, 1-{4-[2-(2,6-Dimethyl-phenylamino)-thiazolo[5,4-d]pyrimidin-7-ylamino]-phenyl}-ethanone], for which the IC50 was determined as 121 nM against rat TRPV1 and 138 nM against human TRPV1.

In the case of `CS(=O)(=O)c1ccc(Nc2nc(N3CCCCC3)nc3sc(Nc4c(Cl)cccc4Cl)nc23)cc1` [Example 129, N^2-(2,6-Dichloro-phenyl)-N^7-(4-methanesulfonyl-phenyl)-5-piperidin-1-yl-thiazolo[5,4-d]pyrimidine-2,7-diamine], the results for the IC50 on rat TRPV1 and at human TRPV1 were 23 nM and 149 nM, respectively.

`Cc1nc(Nc2ccc(SC(F)(F)F)c(Cl)c2)c2nc(Nc3c(C)cccc3C)sc2n1` [Example 131, N^7-(3-Chloro-4-trifluoromethylsulfanyl-phenyl)-N^2-(2,6-dimethyl-phenyl)-5-methyl-thiazolo[5,4-d]pyrimidine-2,7-diamine]: the IC50 against rat TRPV1 came to 140 nM; against human TRPV1, 171 nM.

Turning to `Cc1cccc(C)c1Nc1nc2c(Nc3ccc(Cl)cc3)ncnc2s1` [Example 132, N^7-(4-Chloro-phenyl)-N^2-(2,6-dimethyl-phenyl)-thiazolo[5,4-d]pyrimidine-2,7-diamine], the IC50 was 73 nM against rat TRPV1 and 172 nM against human TRPV1.

`Cc1nc(Nc2ccc(C)c(F)c2)c2nc(Nc3c(C)cccc3C)sc2n1` [Example 133, N^2-(2,6-Dimethyl-phenyl)-N^7-(3-fluoro-4-methyl-phenyl)-5-methyl-thiazolo[5,4-d]pyrimidine-2,7-diamine]: the figures for the IC50 on rat TRPV1 and against human TRPV1 were 107 nM and 175 nM, respectively.

The IC50 is the concentration that inhibits the measured activity by half. A high value points to a need for much substance.
